Source: ChEMBL document CHEMBL1131560, “Preparation of 9-deoxo-4"-deoxy-6,9-epoxyerythromycin lactams "motilactides": potent and orally active prokinetic agents” (Bioorg Med Chem Lett, 1998)

Tests used:
[1] = Compound was evaluated for the half life period after oral administration in conscious dog.; format: ADME, organism-based, Canis lupus familiaris; conditions: in vivo
[2] = Oral bioavailability in dog (conscious); format: ADME, organism-based, Canis lupus familiaris; conditions: in vivo
Oryctolagus cuniculus = organism: Oryctolagus cuniculus; experiment: In vitro smooth muscle contractility using isolated rabbit duodenum; format: functional, Muscle tissue
Canis familiaris = organism: Canis familiaris; experiment: Effective dose was evaluated for gastrointestinal motor stimulating activity in dog; format: functional; conditions: Canis lupus familiaris

Structure (SMILES)	half-life [1] [h]	bioavailability [2] [%]	pED50 (Oryctolagus cuniculus)	ED50 (Canis familiaris) [mg/kg]
CC[C@H]1OC(=O)[C@H](C)[C@@H](O[C@H]2C[C@@](C)(OC)C[C@H](C)O2)[C@H](C)[C@@H](O[C@@H]2O[C@H](C)C[C@H](N(C)C)[C@H]2O)[C@@]2(C)C[C@@H](C)[C@@H](O2)[C@H](C)[C@@H](O)[C@]1(C)O	4	5	7.8	–
CC[C@H]1NC(=O)[C@H](C)[C@@H](O[C@H]2C[C@@](C)(OC)C[C@H](C)O2)[C@H](C)[C@@H](O[C@@H]2O[C@H](C)C[C@H](N(C)CC(C)C)[C@H]2O)[C@@]2(C)C[C@@H](C)[C@@H](O2)[C@H](C)[C@@H](O)[C@]1(C)O	–	–	6.88	–
CC[C@H]1NC(=O)[C@H](C)[C@@H](O[C@H]2C[C@@](C)(OC)C[C@H](C)O2)[C@H](C)[C@@H](O[C@@H]2O[C@H](C)C[C@H](N(C)C)[C@H]2O)[C@@]2(C)C[C@@H](C)[C@@H](O2)[C@H](C)[C@@H](O)[C@]1(C)O	3.3	40	7.5	–
CC[C@@H](O)[C@@](C)(O)C1OC(=O)[C@@H](C)[C@H](OC2C[C@@](C)(OC)C[C@H](C)O2)[C@H](C)[C@@H](O[C@@H]2O[C@H](C)C[C@H](N(C)C)[C@H]2O)[C@@H](C)[C@H]2O[C@H]([C@@H]2C)[C@@H]1C (some centres undefined)	–	–	4.35	–
CC[C@H]1OC(=O)[C@H](C)[C@@H](O[C@H]2C[C@@](C)(OC)[C@@H](O)[C@H](C)O2)[C@H](C)[C@@H](O[C@@H]2O[C@H](C)C[C@H](N(C)C)[C@H]2O)[C@](C)(O)C[C@@H](C)C(=O)[C@H](C)[C@@H](O)[C@]1(C)O [ERYTHROMYCIN]	–	–	5.85	–
CC[C@H]1NC(=O)[C@H](C)[C@@H](O[C@H]2C[C@@](C)(OC)C[C@H](C)O2)[C@H](C)[C@@H](O[C@@H]2O[C@H](C)C[C@H](N(C)CC)[C@H]2O)[C@@]2(C)C[C@@H](C)[C@@H](O2)[C@H](C)[C@@H](O)[C@]1(C)O	–	–	7.11	–
CC[C@H]1NC(=O)[C@H](C)[C@@H](O[C@H]2C[C@@](C)(OC)C[C@H](C)O2)[C@H](C)[C@@H](O[C@@H]2O[C@H](C)C[C@H](N(C)CCO)[C@H]2O)[C@@]2(C)C[C@@H](C)[C@@H](O2)[C@H](C)[C@@H](O)[C@]1(C)O	–	–	6.6	–
CC[C@H]1NC(=O)[C@H](C)[C@@H](O[C@H]2C[C@@](C)(OC)C[C@H](C)O2)[C@H](C)[C@@H](O[C@@H]2O[C@H](C)C[C@H](N(C)CC(C)O)[C@H]2O)[C@@]2(C)C[C@@H](C)[C@@H](O2)[C@H](C)[C@@H](O)[C@]1(C)O (some centres undefined)	–	–	6.6	–
CC[C@H]1NC(=O)[C@H](C)[C@@H](O[C@H]2C[C@@](C)(OC)C[C@H](C)O2)[C@H](C)[C@@H](O[C@@H]2O[C@H](C)C[C@H](N(C)CCF)[C@H]2O)[C@@]2(C)C[C@@H](C)[C@@H](O2)[C@H](C)[C@@H](O)[C@]1(C)O	–	–	6.3	–
CC[C@H]1NC(=O)[C@H](C)[C@@H](O[C@H]2C[C@@](C)(OC)C[C@H](C)O2)[C@H](C)[C@@H](O[C@@H]2O[C@H](C)C[C@H](NC)[C@H]2O)[C@@]2(C)C[C@@H](C)[C@@H](O2)[C@H](C)[C@@H](O)[C@]1(C)O	–	–	7.25	–
CC[C@H]1NC(=O)[C@H](C)[C@@H](O[C@H]2C[C@@](C)(OC)C[C@H](C)O2)[C@H](C)[C@@H](O[C@@H]2O[C@H](C)C[C@H](N(C)C(C)C)[C@H]2O)[C@@]2(C)C[C@@H](C)[C@@H](O2)[C@H](C)[C@@H](O)[C@]1(C)O	3.8	60.5	8	0.036
CC[C@H]1OC(=O)[C@H](C)[C@@H](O[C@H]2C[C@@](C)(OC)C[C@H](C)O2)[C@H](C)[C@@H](O[C@@H]2O[C@H](C)C[C@H](N(C)CC)[C@H]2O)[C@@]2(C)CC(C)=C(O2)[C@H](C)[C@@H](O)[C@H]1C [ALEMCINAL]	–	–	7.22	–
